A short description of the series: Preliminary finding on bioavailability of pure curcumin.

Consider `COc1cc(/C=C/C(=O)CC(=O)/C=C/c2ccc(O)c(OC)c2)ccc1O` [Curcumin], for which the Bioavailability result is “poor”.

The values are drawn from patent publication US9913873B2, “Turmeric extract containing soft pastilles” (priority 2013, dated 2018).
